In patent US11976054B2, “Amide derivative and preparation method therefore and use thereof in medicine” (Chengdu Baiyu Pharmaceutical Co., Ltd., priority 2019, dated 2024):

Key:
[1] = tested on: Human monocyte cell line THP-1; experiment: Detection of THP-1 cell pyroptosis (Caspase-Glo 1 Inflammasome Assay); format: cell-based; details: THP-1 pyroptosis, 20 nM PMA 48 h, 1 μg/mL LPS, compound 3 h
Experimental: Human monocyte cell line THP-1 (ATCC® TB-202TM) was cultured in RPMI-1640 culture medium containing […], 1 mM pyruvic acid, 0.05 mM β-mercaptoethanol and 10% double antibody under the culture conditions of 37° C. and […].
Cell counting was performed, THP-1 cells were seeded into a 96-well plate at 50000 per well, and 20 nM PMA was added for inducing at 37° C./5% CO2 for 48 h. The culture medium was then discarded, and 100 μL of serum-free RPMI-1640 medium containing 1 μg/mL LPS was added. 5 μL of compound or solvent control was added and 3-fold diluted in gradient from a maximum concentration of 10 μM, and 10 gradient concentrations were set. The mixtures were incubated at 37° C./5% CO2 for 3 h. After the incubation, the mixtures were centrifuged at 300 g for 5 min, and the culture medium was discarded. Pyroptosis assay was performed according to specific steps described in instructions of Caspase-Glo® 1 Inflammasome Assay kit. IC50 was calculated using GraphPad Prism7.0 software.

[2] = Pharmacokinetic analysis of compounds in rats; format: in vivo, SD rats; details: SD, rat, in vivo
Experimental: Healthy adult SD rats weighing 180-220 g were fasted (free access to water) overnight and divided into tail vein administration group and intragastric administration group. The tail vein administration group was subjected to blood collection of 0.1 mL from orbital venous plexus before the administration and 5 min, 15 min, 0.5 h, 1 h, 2 h, 4 h, 8 h, 12 h and 24 h after the administration, and plasma was separated out by centrifugation at 4° C. for 5 min and stored at −20° C. for test. The intragastric administration group was subjected to blood collection of 0.1 mL from orbital venous plexus before the administration and 5 min, 15 min, 0.5 h, 1 h, 2 h, 4 h, 8 h, 12 h and 24 h after the administration, and the subsequent treatment procedures were the same as those of the tail vein injection group. The concentration of parent drug in the plasma was determined by LC-MS/MS.

## C[C@@H](c1ccc2c(c1NC(=O)NS(=N)(=O)c1cc(C(C)(C)O)co1)CC2)C1CC1 (mixture of isomers) [Compound 38-2, RS- and SS-N-((3-((R)-1-cyclopropylethyl)bicyclo[4.2.0]octa-1(6),2,4-trien-2-yl)carbamoyl)-4-(2-hydroxypropan-2-yl)furan-2-sulfonimidamide]
[1]
  IC50: 1000 to 5000 nM

## CC(c1ccc2c(c1NC(=O)NS(=N)(=O)c1cnc(C(C)(C)O)s1)CCC2)C1CC1 (racemic) [Compound 20-2, (RS, SC)- and (SS, SC)-N-((5-(1-cyclopropylethyl)-2,3-dihydro-1H-inden-4-yl)carbamoyl)-2-(2-hydroxypropan-2-yl)thiazole-5-sulfonimidamide]
[1]
  IC50: 100 to 500 nM

## Cc1oc(S(=N)(=O)NC(=O)Nc2c(C(C)C3CC3)ccc3c2CCC3)cc1C(C)(C)O (racemic) [Compound 25-1, (RS, SC)- and (SS, SC)-N-((5-(1-cyclopropylethyl)-2,3-dihydro-1H-inden-4-yl)carbamoyl)-4-(2-hydroxypropan-2-yl)-5-methylfuran-2-sulfonimidamide]
[1]
  IC50: ≤ 100 nM

## Cc1oc(S(=N)(=O)NC(=O)Nc2c(C(C)C3CC3)ccc3c2CCC3)cc1C(C)(C)O (racemic) [Compound 25-2, (RS, SC)- and (SS, SC)-N-((5-(1-cyclopropylethyl)-2,3-dihydro-1H-inden-4-yl)carbamoyl)-4-(2-hydroxypropan-2-yl)-5-methylfuran-2-sulfonimidamide]
[1]
  IC50: 100 to 500 nM

## CC(c1ccc2c(c1NC(=O)NS(=N)(=O)c1cc(C(C)(C)O)co1)CC2)C1CC1 (racemic) [Compound 36-2, (RS, SC)- and (SS, SC)-N-((3-(1-cyclopropylethyl)bicyclo[4.2.0]octa-1(6),2,4-trien-2-yl)carbamoyl)-4-(2-hydroxypropan-2-yl)furan-2-sulfonimidamide]
[1]
  IC50: 1000 to 5000 nM

## CC(c1cc(C#N)c2c(c1NC(=O)NS(=N)(=O)c1cc(C(C)(C)O)co1)CCC2)C1CC1 (racemic) [Compound 46-1, (RS, RC)- and (SS, RC)-N-((7-cyano-5-(1-cyclopropylethyl)-2,3-dihydro-1H-inden-4-yl)carbamoyl)-4-(2-hydroxypropan-2-yl)furan-2-sulfonimidamide]
[1]
  IC50: 100 to 500 nM

## CC(c1cc(C#N)c2c(c1NC(=O)NS(=N)(=O)c1cc(C(C)(C)O)co1)CCC2)C1CC1 (racemic) [Compound 46-2, (RS, RC)- and (SS, RC)-N-((7-cyano-5-(1-cyclopropylethyl)-2,3-dihydro-1H-inden-4-yl)carbamoyl)-4-(2-hydroxypropan-2-yl)furan-2-sulfonimidamide]
[1]
  IC50: 100 to 500 nM

## CC(c1cc(C#N)c2c(c1NC(=O)NS(=N)(=O)c1cc(C(C)(C)O)co1)CCC2)C1CC1 (racemic) [Compound 48-1, (RS, SC)- and (SS, SC)-N-((7-cyano-5-(1-cyclopropylethyl)-2,3-dihydro-1H-inden-4-yl)carbamoyl)-4-(2-hydroxypropan-2-yl)furan-2-sulfonimidamide]
[1]
  IC50: 100 to 500 nM

## CC(c1cc(C#N)c2c(c1NC(=O)NS(=N)(=O)c1cc(C(C)(C)O)co1)CCC2)C1CC1 (racemic) [Compound 48-2, (RS, SC)- and (SS, SC)-N-((7-cyano-5-(1-cyclopropylethyl)-2,3-dihydro-1H-inden-4-yl)carbamoyl)-4-(2-hydroxypropan-2-yl)furan-2-sulfonimidamide]
[1]
  IC50: 1000 to 5000 nM

## CC(c1ccc2c(c1NC(=O)NS(=N)(=O)c1ccc(C(C)(C)O)s1)CCC2)C1CC1 (racemic) [Compound 51-2, (RS, SC)- and (SS, SC)-N-((5-(1-cyclopropylethyl)-2,3-dihydro-1H-inden-4-yl)carbamoyl)-5-(2-hydroxypropan-2-yl)thiophene-2-sulfonimidamide]
[1]
  IC50: 5000 to 10000 nM

## CC(c1ccc2c(c1NC(=O)NS(=N)(=O)c1cc(C(C)(C)O)co1)CCC2)C1CC1 (racemic) [Compound 52-1, (RS, SC)- and (SS, SC)-N-((5-(1-cyclopropylethyl)-2,3-dihydro-1H-inden-4-yl)carbamoyl)-4-(2-hydroxypropan-2-yl)furan-2-sulfonimidamide]
[1]
  IC50: 1000 to 5000 nM

## CC(C)(O)c1ccc(S(=N)(=O)NC(=O)Nc2c(CC3CCC3)ccc3c2CCC3)s1 (racemic) [Compound 53-2, (RS)- and (SS)-N-((5-(cyclobutylmethyl)-2,3-dihydro-1H-inden-4-yl)carbamoyl)-5-(2-hydroxypropan-2-yl)thiophene-2-sulfonimidamide]
[1]
  IC50: 100 to 500 nM

## CC(C)c1cccc([C@@H](C)C2CC2)c1NC(=O)NS(=N)(=O)c1cc(C(C)(C)O)co1 (mixture of isomers) [Compound 73-1, (RS, SC) and (SS, SC)-N-((2-(1-cyclopropylethyl)-6-isopropylphenyl)carbamoyl)-4-(2-hydroxypropan-2-yl)furan-2-sulfonimidamide]
[1]
  IC50: ≤ 100 nM

## CC(C)c1cccc([C@@H](C)C2CC2)c1NC(=O)NS(=N)(=O)c1cc(C(C)(C)O)co1 (mixture of isomers) [Compound 73-2, (RS, SC) and (SS, SC)-N-((2-(1-cyclopropylethyl)-6-isopropylphenyl)carbamoyl)-4-(2-hydroxypropan-2-yl)furan-2-sulfonimidamide]
[1]
  IC50: 1000 to 5000 nM

## CC(C)c1cccc(C(C)C2CC2)c1NC(=O)NS(=N)(=O)c1cc(C(C)(C)O)co1 (racemic) [Compound 74-1, (RS, RC)- and (SS, RC)-N-((2-(1-cyclopropylethyl)-6-isopropylphenyl)carbamoyl)-4-(2-hydroxypropan-2-yl)furan-2-sulfonimidamide]
[1]
  IC50: ≤ 100 nM

## CC(C)c1cccc(C(C)C2CC2)c1NC(=O)NS(=N)(=O)c1cc(C(C)(C)O)co1 (racemic) [Compound 74-2, (RS, RC)- and (SS, RC)-N-((2-(1-cyclopropylethyl)-6-isopropylphenyl)carbamoyl)-4-(2-hydroxypropan-2-yl)furan-2-sulfonimidamide]
[1]
  IC50: 1000 to 5000 nM

## C[C@@H](c1ccc2c(c1NC(=O)NS(=N)(=O)c1cc(C(C)(C)O)co1)CCC2)C1CCC1 (mixture of isomers) [Compound 80-1, (RS)- and (SS)-N-((5-((R)-1-cyclobutylethyl)-2,3-dihydro-1H-inden-4-yl)carbamoyl)-4-(2-hydroxypropan-2-yl)furan-2-sulfonimidamide]
[1]
  IC50: 100 to 500 nM

## CC(C)(O)c1ncc(S(=N)(=O)NC(=O)Nc2c(CC3CCC3)ccc3c2CCC3)s1 (single isomer, unassigned) [Compound 19-1, RS- and SS-N-((5-(cyclobutylmethyl)-2,3-dihydro-1H-inden-4-yl)carbamoyl)-2-(2-hydroxypropan-2-yl)thiazole-5-sulfonimidamide]
[1]
  IC50: 1000 to 5000 nM

## CC(C)(O)c1ncc(S(=N)(=O)NC(=O)Nc2c(CC3CCC3)ccc3c2CCC3)s1 (single isomer, unassigned) [Compound 19-2, RS- and SS-N-((5-(cyclobutylmethyl)-2,3-dihydro-1H-inden-4-yl)carbamoyl)-2-(2-hydroxypropan-2-yl)thiazole-5-sulfonimidamide]
[1]
  IC50: 100 to 500 nM

## Cc1oc(S(=N)(=O)NC(=O)Nc2c(C(C)C3CC3)ccc3c2CCC3)cc1C(C)(C)O (single isomer, unassigned) [Compound 24-1, RS- and SS-N-((5-(1-cyclopropylethyl)-2,3-dihydro-1H-inden-4-yl)carbamoyl)-4-(2-hydroxypropan-2-yl)-5-methylfuran-2-sulfonimidamide]
[1]
  IC50: 100 to 500 nM

## [2H]c1cc([C@@H](C)C2CC2)c(NC(=O)NS(=N)(=O)c2cc(C(C)(C)O)co2)c2c1CCC2 (single isomer, unassigned) [Compound 32-1, (RS, SC)- and (SS, SC)-N-((5-(1-cyclopropylethyl)-2,3-dihydro-1H-inden-4-yl-7-d)carbamoyl)-4-(2-hydroxypropan-2-yl)furan-2-sulfonimidamide]
[1]
  IC50: 1000 to 5000 nM

## CC(C)(O)c1coc(S(=N)(=O)NC(=O)Nc2c(CC3CCC3)ccc3c2CC3)c1 (single isomer, unassigned) [Compound 34-1, RS- and SS-N-((3-(cyclobutylmethyl)bicyclo[4.2.0]octa-1(6),2,4-trien-2-yl)carbamoyl)-4-(2-hydroxypropan-2-yl)furan-2-sulfonimidamide]
[1]
  IC50: 5000 to 10000 nM

## CC(C)(O)c1coc(S(=O)(=O)NC(=O)Nc2c3c(cc4c2CCC4)CCC3)c1 [Control 3, 1-(1,2,3,5,6,7-hexahydro-s-indacen-4-yl)-3-[4-(1-hydroxy-1-methyl-ethyl)-furan-2-sulfonyl]urea, reference compound]
[2]; iv, 1 mg/kg
  AUC: 1400 ng·h/mL
  Vd: 0.402 L/kg
  clearance: 14.2 mL/min/kg
  half-life: 0.46 h
[2]; po
  bioavailability: 36.4%
[2]; po, 10 mg/kg
  AUC: 5080 ng·h/mL
  Cmax: 1930 ng/mL
  half-life: 2.1 h
